From patent publication US8987250B2 (Gilead Sciences, Inc., priority 2012, dated 2015) come the findings set out here.

Broadly, the EC50 is the concentration needed to bring the measured effect to its halfway point.

One series deals with HIV-IIIb. Briefly: Test A: Antiviral Assay in MT4 Cells. The following applies: MT-4 cells infected with HIV-IIIb, 5 days of incubation, CellTiter-Glo, read-out: EC50. The series is classed as cell-based. The method, boiled down:
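MT-4 cells pre-infected with HIV-IIIb (0.004 m.o.i.) at 37 °C, then exposed to 3-fold serial compound dilutions (10 concentrations, quadruplicate) in RPMI 1640/10% FBS. After 5 days at 37 °C, viability read by CellTiter-Glo luminescence.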
On the technique in general: ATP-based viability assays read luminescence as a measure of living cells.

In the next series the test system is human liver microsomes. Nature of the series: Test B: Metabolic Stability Assay with Human Liver Microsomes. The series is classed as in vitro ADME. The following applies: 1 uM compound, 1 mg/mL human liver microsomal proteins, 37° C., 0-60 minutes; half-life class. The text has this: Test B: Metabolic Stability Assay with Human Liver Microsomes
Effective viral suppression in the HIV infected patient requires that the antiviral drug persists in the patient's body at concentrations exceeding the minimum concentration required to inhibit viral proliferation. One of the factors controlling the drug levels after dosing is metabolic conversion. The liver is one site of drug metabolism. Approximately 60% of marketed drugs are cleared by hepatic metabolism (McGinnity D F et al. (2004) Drug Metab Dispos 32; 1247-1253). Liver microsomes are subcellular fractions which contain membrane bound drug metabolising enzymes. Human liver microsomes provide a convenient and concentrated source of the key liver metabolic enzymes (e.g., cytochromes P450, UDP-glucuronosyltransferases, and many others) and can be used to predict the metabolic stability of drug candidates (e.g., agents).
Cluster tubes containing 500 uL of 1 uM compound with 1 mg/mL human liver microsomal proteins (BD Biosciences, BD452117)/50 mM K-phosphate buffer pH7.4/NADPH regenerating system/and UDP-glucuronosyltransferase cofactors, were incubated on the Precision-2000 workstation at 37° C. for 0, 10, 25, 60 minutes. The reactions were quenched with 100 uL of 0.2% formic acid in 90% ACN; containing 50 nM of an internal standard. The samples were analyzed on LC/MS/MS instrument (Q-Trap). Metabolic stabilities in microsomal fractions and hepatocytes were determined by measuring the rate of disappearance of the compound. Data (% of parent remaining) were plotted on a semi logarithmic scale and fitted using an exponential fit.

[1] abbreviates: Human immunodeficiency virus 1, IIIB, MT4, 120 h, Table 1.
Where [2] appears, read: Human immunodeficiency virus 1, IIIB, MT4, 120 h, Table 2.

Like-named read-outs stand apart in the source and are kept apart here.

With `Cc1cc2nc(-c3cccc(-c4cnn(C)c4)c3)sc2c(-c2ccc(Cl)cc2)c1[C@H](OC(C)(C)C)C(=O)O` [Compound 158], the EC50 in the series on HIV-IIIb (setting [1]) is 17 nM. In the series with human liver microsomes, the “Human Microsomal stability” value is recorded as “C (a human microsomal stability half-life of less than 150 minutes)”.

Consider `Cc1cc2nc(-c3ccc4c(c3)c(N3CCN(C)CC3)nn4C)sc2c(-c2ccc(Cl)cc2)c1[C@H](OC(C)(C)C)C(=O)O` [Compound 257, (S)-2-tert-butoxy-2-(7-(4-chlorophenyl)-5-methyl-2-(1-methyl-3-(4-methylpiperazin-1-yl)-1H-indazol-5-yl)benzo[d]thiazol-6-yl)acetic acid], for which the EC50 in the series on HIV-IIIb (setting [2]) was found to be 5 nM. Also, in the series with human liver microsomes, the “Human Microsomal stability” value is recorded as “A (a human microsomal stability half-life of greater than or equal to 300 minutes)”.

Take `Cc1cc2nc(-c3cccc(-c4cnn(C(C)(C)C)c4)c3)sc2c(-c2ccc(Cl)cc2)c1[C@H](OC(C)(C)C)C(=O)O` [Compound 141]: the EC50 in the series with HIV-IIIb (setting [1]) came out at 77 nM. Moreover, the “Human Microsomal stability” value in the series with human liver microsomes was “B (a human microsomal stability half-life of less than 300 minutes but greater than or equal to 150 minutes)”.

In the case of `Cc1cc2nc(-c3ccc4c(N(C)C)nn(C)c4c3)sc2c(-c2ccc(Cl)cc2)c1[C@H](OC(C)(C)C)C(=O)O` [Compound 206, (S)-2-tert-butoxy-2-(7-(4-chlorophenyl)-2-(3-(dimethylamino)-1-methyl-1H-indazol-6-yl)-5-methylbenzo[d]thiazol-6-yl)acetic acid], the EC50 in the series on HIV-IIIb (setting [2]) is 24 nM. Further, the “Human Microsomal stability” value in the series with human liver microsomes was “C (a human microsomal stability half-life of less than 150 minutes)”.

`Cc1cc2nc(-c3ccnc(N4CCN(C(C)C)CC4)n3)sc2c(-c2ccc(Cl)cc2)c1[C@H](OC(C)(C)C)C(=O)O` [Compound 202, (S)-2-tert-butoxy-2-(7-(4-chlorophenyl)-2-(2-(4-isopropylpiperazin-1-yl)pyrimidin-4-yl)-5-methylbenzo[d]thiazol-6-yl)acetic acid]: in the series with HIV-IIIb (setting [2]), the EC50 worked out at 2 nM. Moreover, the “Human Microsomal stability” value with human liver microsomes is recorded as “A (a human microsomal stability half-life of greater than or equal to 300 minutes)”.

On to `Cc1cc2nc(-c3cccc(-c4ccc5c(cnn5C)c4)c3)sc2c(-c2ccc3c4c(ccnc24)CCO3)c1[C@H](OC(C)(C)C)C(=O)O` (atropisomer, axis not shown) [Compound 163], for which the EC50 with HIV-IIIb (Table 1) came to 18 nM. Also, the “Human Microsomal stability” value in the series with human liver microsomes is recorded as “C (a human microsomal stability half-life of less than 150 minutes)”.

For the compound `Cc1cc2nc(-c3ccnc(N4CCN(C5COC5)CC4)n3)sc2c(-c2ccc(Cl)cc2)c1[C@H](OC(C)(C)C)C(=O)O` [Compound 336, (S)-2-tert-butoxy-2-(7-(4-chlorophenyl)-5-methyl-2-(2-(4-(oxetan-3-yl)piperazin-1-yl)pyrimidin-4-yl)benzo[d]thiazol-6-yl)acetic acid], the EC50 in the series on HIV-IIIb (setting [2]) was 2 nM. Further, the “Human Microsomal stability” value in the series on human liver microsomes is “A (a human microsomal stability half-life of greater than or equal to 300 minutes)”.

With `Cc1cc2nc(-c3ccc4c(c3)c(-c3cccnc3)nn4C)sc2c(-c2ccc(Cl)cc2)c1[C@H](OC(C)(C)C)C(=O)O` [Compound 212, (S)-2-tert-butoxy-2-(7-(4-chlorophenyl)-5-methyl-2-(1-methyl-3-(pyridin-3-yl)-1H-indazol-5-yl)benzo[d]thiazol-6-yl)acetic acid], the EC50 turned out to be 6 nM in the series on HIV-IIIb (setting [2]) and 726 nM in the series with HIV-IIIb (Table 1). Besides, the “Human Microsomal stability” value with human liver microsomes was “A (a human microsomal stability half-life of greater than or equal to 300 minutes)”.

As for `Cc1cc2nc(-c3ccc4c(c3)ncn4Cc3ccccc3)sc2c(-c2ccc(Cl)cc2)c1[C@H](OC(C)(C)C)C(=O)O` [Compound 285, (S)-2-(2-(1-benzyl-1H-benzo[d]imidazol-5-yl)-7-(4-chlorophenyl)-5-methylbenzo[d]thiazol-6-yl)-2-tert-butoxyacetic acid], the “Human Microsomal stability” value in the series with human liver microsomes is listed as “A (a human microsomal stability half-life of greater than or equal to 300 minutes)”.

As to `Cc1cc2nc(-c3cccc(-c4ccnc(Cl)c4)c3)sc2c(-c2ccc(Cl)cc2)c1[C@H](OC(C)(C)C)C(=O)O` [Compound 107, (S)-2-tert-butoxy-2-(7-(4-chlorophenyl)-2-(3-(2-chloropyridin-4-yl)phenyl)-5-methylbenzo[d]thiazol-6-yl)acetic acid], in the series with HIV-IIIb (setting [1]), the EC50 was found to be 46 nM. Besides, the “Human Microsomal stability” value in the series on human liver microsomes is recorded as “C (a human microsomal stability half-life of less than 150 minutes)”.

For the compound `Cc1cc2nc(-c3cccc(-c4ccc5c(cnn5C)c4)c3)sc2c(-c2ccc(Cl)cc2)c1[C@H](OC(C)(C)C)C(=O)O` [Compound 109, (S)-2-tert-butoxy-2-(7-(4-chlorophenyl)-5-methyl-2-(3-(1-methyl-1H-indazol-5-yl)phenyl)benzo[d]thiazol-6-yl)acetic acid], the concentration for a half-maximal effect (EC50) in the series on HIV-IIIb (setting [1]) was 82 nM. The “Human Microsomal stability” value in the series on human liver microsomes was “B (a human microsomal stability half-life of less than 300 minutes but greater than or equal to 150 minutes)”.

As for `COc1cc(-c2cccc(-c3nc4cc(C)c([C@H](OC(C)(C)C)C(=O)O)c(-c5ccc(Cl)cc5)c4s3)c2)ccn1` [Compound 152], the concentration giving a half-maximal response (EC50) in the series with HIV-IIIb (setting [1]) worked out at 46 nM. Besides, the “Human Microsomal stability” value in the series on human liver microsomes is given as “C (a human microsomal stability half-life of less than 150 minutes)”.

Turning to `Cc1cc2nc(-c3ccnc(N4CC(N(C)C)C4)n3)sc2c(-c2ccc(Cl)cc2)c1[C@H](OC(C)(C)C)C(=O)O` [Compound 333, (S)-2-tert-butoxy-2-(7-(4-chlorophenyl)-2-(2-(3-(dimethylamino)azetidin-1-yl)pyrimidin-4-yl)-5-methylbenzo[d]thiazol-6-yl)acetic acid], the EC50 in the series with HIV-IIIb (setting [2]) came to 3 nM. Moreover, in the series on human liver microsomes, the “Human Microsomal stability” value is “A (a human microsomal stability half-life of greater than or equal to 300 minutes)”.

Consider `Cc1cc2nc(-c3ccnc(N4CCNCC4)n3)sc2c(-c2ccc(Cl)cc2)c1[C@H](OC(C)(C)C)C(=O)O` [Compound 476, (S)-2-tert-butoxy-2-(7-(4-chlorophenyl)-5-methyl-2-(2-(piperazin-1-yl)pyrimidin-4-yl)benzo[d]thiazol-6-yl)acetic acid], for which, in the series with HIV-IIIb (setting [2]), the EC50 was 128 nM.

Regarding `COc1ccc(-c2cc(-c3nc4cc(C)c([C@H](OC(C)(C)C)C(=O)O)c(-c5ccc(Cl)cc5)c4s3)ccn2)cc1OC` [Compound 350], the EC50 in the series with HIV-IIIb (setting [2]) is 14 nM.

For the compound `CCn1cc2cc(-c3cc(-c4nc5cc(C)c([C@H](OC(C)(C)C)C(=O)O)c(-c6ccc(Cl)cc6)c5s4)ccn3)ccc2n1` [Compound 173, (S)-2-tert-butoxy-2-(7-(4-chlorophenyl)-2-(2-(2-ethyl-2H-indazol-5-yl)pyridin-4-yl)-5-methylbenzo[d]thiazol-6-yl)acetic acid], in the series on HIV-IIIb (setting [2]), the EC50 is 11 nM.

With `CCN1CCN(c2nccc(-c3nc4cc(C)c([C@H](OC(C)(C)C)C(=O)O)c(-c5ccc(Cl)cc5)c4s3)n2)CC1=O` [Compound 473, (S)-2-tert-butoxy-2-(7-(4-chlorophenyl)-2-(2-(4-ethyl-3-oxopiperazin-1-yl)pyrimidin-4-yl)-5-methylbenzo[d]thiazol-6-yl)acetic acid], the EC50 with HIV-IIIb (setting [2]) worked out at 8 nM.

As for `Cc1cc2nc(-c3ccnc(-c4ccc5c(c4)NC(=O)CO5)c3)sc2c(-c2ccc(Cl)cc2)c1[C@H](OC(C)(C)C)C(=O)O` [Compound 394], the concentration for a half-maximal effect (EC50) in the series on HIV-IIIb (setting [2]) was found to be 25 nM.

In the case of `Cc1cc2nc(N3CC[C@@H]4CCCC[C@@H]4C3)sc2c(-c2ccc(Cl)cc2)c1[C@H](OC(C)(C)C)C(=O)O` [Compound 437], in the series on HIV-IIIb (setting [2]), the concentration giving a half-maximal response (EC50) was 309 nM.

As for `Cc1cc2nc(-c3ccnc(N4CCN(C)CC4)n3)sc2c(-c2ccc(Cl)cc2)c1[C@H](OC(C)(C)C)C(=O)O` [Compound 344], the EC50 in the series on HIV-IIIb (setting [2]) is 6 nM.

`Cc1cc2nc(-c3ccnc(N4CCN(C)[C@@H](C)C4)n3)sc2c(-c2ccc(Cl)cc2)c1[C@H](OC(C)(C)C)C(=O)O` [Compound 468, (S)-2-tert-butoxy-2-(7-(4-chlorophenyl)-2-(2-((S)-3,4-dimethylpiperazin-1-yl)pyrimidin-4-yl)-5-methylbenzo[d]thiazol-6-yl)acetic acid]: in the series with HIV-IIIb (setting [2]), the EC50 came to 8 nM.

Take `Cc1cc2cc(-c3nc4cc(C)c([C@H](OC(C)(C)C)C(=O)O)c(-c5ccc(Cl)cc5)c4s3)cnc2[nH]1` [Compound 379]: the EC50 with HIV-IIIb (setting [2]) came out at 15 nM.

As to `Cc1cc2nc(-c3cccc(-c4cnc(=O)n(C)c4)c3)sc2c(-c2ccc(Cl)cc2)c1[C@H](OC(C)(C)C)C(=O)O` [Compound 280, (S)-2-tert-butoxy-2-(7-(4-chlorophenyl)-5-methyl-2-(3-(1-methyl-2-oxo-1,2-dihydropyrimidin-5-yl)phenyl)benzo[d]thiazol-6-yl)acetic acid], the EC50 in the series on HIV-IIIb (setting [2]) came out at 248 nM.
